Literature values in patent US20040265231A1, “Use of antioxidants to mitigate radioimmunotherapy-induced radiation toxicity” (priority 1999, published 2004).

How the values were obtained:
[1] = for radioprotective effect (frequency of micronuclei and chromosomal aberration post-radiation): murine study, gamma-ray

| Compound | radioprotective effect (frequency of micronuclei and chromosomal aberration post-radiation) [1] | radioprotective effect against internalized 131I and 125I (dietary and injected) | radioprotective effect against 210Po (alpha emission) (in vivo) | radioprotection against tissue incorporated I5I (in vivo) | radioprotective effect of vitamin alone ([1]; rats and mice) |
| --- | --- | --- | --- | --- | --- |
| O=C1O[C@H]([C@@H](O)CO)C(O)=C1O [vitamin C, L-ascorbic acid] | exhibited radioprotective effects | exhibited radioprotective effects | not against alpha emission from ^210Po |  |  |
| vitamin A |  |  | not against ^210Po | effective radioprotector |  |
| vitamin E | exhibited radioprotective effects |  |  |  | ineffective |
